Earlier results on 1 compound are cited in patent US5965741A, “Ortho-substituted aromatic ether compounds and their use in pharmaceutical compositions for pain relief” (Zeneca Limited, priority 1994, dated 1999).

For this data set, the system named is EP1 receptors. Conditions: guinea pig ileum or dog fundus.

`CC(=O)NNC(=O)N1Cc2ccccc2Oc2ccc(Cl)cc21` [SC-19220]: the “block of the effect of PGE2” value is reported as “blocks the effect of PGE2”.
